Read-outs that look alike come from different tables or passages of the source.
Tests used:
[1] = test system: MYC protein expression in MCF-7 breast cancer cells; test: Western blotting of MYC protein level in MCF-7 cells; type: cell-based, human; settings: Homo sapiens, MCF7; western blotting, MCF-7 cells, 0.5, 1, 2, and 4 μM, 24 hours; read-out: MYC Inhibition
In short: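 Immunoblotting with ECL detection quantified MYC, with GAPDH (1:2000) as reference and anti-MYC at 1:1000.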

[2] = test system: NCI-60 cancer cell lines; test: NCI-60 cancer cell line drug screen (GI50, MGM); type: cell-based, human; settings: Homo sapiens; for GI50: read-out: Antiproliferative Activities [GI50 (μM)]
Description: Cancer cells were incubated with the test compounds at five concentrations ranging from 100 μM to 10 nM for 48 h. […] The approximate average of GI50 values across the entire panel of NCI-60 cancer cell lines for each compound was recorded as the MGM value.

[3] = molecular target: T1, human topoisomerase I (Homo sapiens, UniProt P11387); settings: relative topoisomerase I inhibition levels, previously determined, six levels (0 - 5, +++++ = 5); cited from earlier work
T1 sequence (P11387 1-765): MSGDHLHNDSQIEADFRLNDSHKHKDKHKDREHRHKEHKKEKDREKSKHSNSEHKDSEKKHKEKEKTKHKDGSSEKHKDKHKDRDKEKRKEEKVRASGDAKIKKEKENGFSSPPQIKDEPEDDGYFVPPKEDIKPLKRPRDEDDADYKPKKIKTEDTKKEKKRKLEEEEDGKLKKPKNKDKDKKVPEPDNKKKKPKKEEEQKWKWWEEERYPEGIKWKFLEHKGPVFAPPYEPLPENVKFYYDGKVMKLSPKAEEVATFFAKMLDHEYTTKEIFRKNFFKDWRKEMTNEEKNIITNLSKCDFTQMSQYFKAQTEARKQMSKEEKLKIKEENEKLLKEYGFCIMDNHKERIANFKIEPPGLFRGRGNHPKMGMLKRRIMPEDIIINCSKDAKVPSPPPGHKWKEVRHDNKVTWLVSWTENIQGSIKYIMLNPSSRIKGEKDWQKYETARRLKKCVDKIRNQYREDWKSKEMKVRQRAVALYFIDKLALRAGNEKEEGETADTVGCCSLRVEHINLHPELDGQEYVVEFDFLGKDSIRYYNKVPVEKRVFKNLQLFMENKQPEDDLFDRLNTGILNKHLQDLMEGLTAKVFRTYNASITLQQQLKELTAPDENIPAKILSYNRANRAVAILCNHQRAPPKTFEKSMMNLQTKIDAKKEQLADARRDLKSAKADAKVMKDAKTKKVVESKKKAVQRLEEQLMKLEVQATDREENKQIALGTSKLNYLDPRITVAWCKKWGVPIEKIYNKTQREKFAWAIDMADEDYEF

CN(C)CCCn1c2c(c3ccc(-c4ccn[nH]4)cc3c1=O)C(=O)c1ccccc1-2 [Compound 30]
minimal effective concentration [1]: 4 µM | GI50 ([2]; 786-0, Renal Cancer, 786-0): 0.22 µM | GI50 ([2]; A498, Renal Cancer, A498): 10.6 µM | GI50 ([2]; A549, Non-Small Cell Lung Cancer, A549/ATCC): 0.06 µM | GI50 ([2]; ACHN, Renal Cancer, ACHN): 0.09 µM | GI50 ([2]; BT-549, Breast Cancer, BT-549): 3.1 µM | GI50 ([2]; CCRF-CEM, Leukemia, CCRF-CEM): 0.03 µM | GI50 ([2]; COLO 205, Colon Cancer, COLO 205): 4.92 µM | GI50 ([2]; DU-145, Prostate Cancer, DU-145): 0.2 µM | GI50 ([2]; EKVX, Non-Small Cell Lung Cancer, EKVX): 2.91 µM | GI50 ([2]; HCC 2998, Colon Cancer, HCC-2998): 10 µM | GI50 ([2]; HCT-15, Colon Cancer, HCT-15): 0.09 µM | GI50 ([2]; HCT-116, Colon Cancer, HCT-116): 0.39 µM | GI50 ([2]; HL-60, Leukemia, HL-60(TB)): 0.03 µM | GI50 ([2]; HOP-62, Non-Small Cell Lung Cancer, HOP-62): 0.18 µM | GI50 ([2]; HOP-92, Non-Small Cell Lung Cancer, HOP-92): 0.13 µM | GI50 ([2]; HT-29, Colon Cancer, HT29): 0.34 µM | GI50 ([2]; Hs-578T, Breast Cancer, HS 578T): 4.9 µM | GI50 ([2]; IGROV-1, Ovarian Cancer, IGROV1): 0.58 µM | GI50 ([2]; K562, Leukemia, K-562): 0.34 µM | GI50 ([2]; KM12, Colon Cancer, KM12): 0.53 µM | GI50 ([2]; LOX IMVI, Melanoma, LOX IMVI): 0.1 µM | GI50 ([2]; Leukemia, SR): 0.02 µM | GI50 ([2]; MCF7, Breast Cancer, MCF7): 0.04 µM | GI50 ([2]; MDA-MB-231, Breast Cancer, MDA-MB-231/ATCC): 1.27 µM | GI50 ([2]; MDA-MB-435, Melanoma, MDA-MB-435): 10.3 µM | GI50 ([2]; MDA-MB-468, Breast Cancer, MDA-MB-468): 7.84 µM | GI50 ([2]; MOLT-4, Leukemia, MOLT-4): 0.02 µM | GI50 ([2]; Malme-3M, Melanoma, MALME-3M): 0.93 µM | GI50 ([2]; Melanoma, M14): 1.65 µM | GI50 ([2]; NCI-H23, Non-Small Cell Lung Cancer, NCI-H23): 0.24 µM | GI50 ([2]; NCI-H226, Non-Small Cell Lung Cancer, NCI-H226): 0.27 µM | GI50 ([2]; NCI-H322M, Non-Small Cell Lung Cancer, NCI-H322M): 7.05 µM | GI50 ([2]; NCI-H460, Non-Small Cell Lung Cancer, NCI-H460): 0.04 µM | GI50 ([2]; NCI-H522, Non-Small Cell Lung Cancer, NCI-H522): 0.84 µM | GI50 ([2]; OVCAR-3, Ovarian Cancer, OVCAR-3): 6.09 µM | GI50 ([2]; OVCAR-4, Ovarian Cancer, OVCAR-4): 1.45 µM | GI50 ([2]; OVCAR-5, Ovarian Cancer, OVCAR-5): 1.51 µM | GI50 ([2]; OVCAR-8, Ovarian Cancer, OVCAR-8): 0.16 µM | GI50 ([2]; Ovarian Cancer, NCl/ADR-RES): 1.48 µM | GI50 ([2]; Prostate Cancer, PC-3): 1.21 µM | GI50 ([2]; RPMI-8226, Leukemia, RPMI-8226): 0.12 µM | GI50 ([2]; RXF 393, Renal Cancer, RXF 393): 1.66 µM | GI50 ([2]; Renal Cancer, U0-31): 0.3 µM | GI50 ([2]; SF-268, CNS Cancer, SF-268): 1.85 µM | GI50 ([2]; SF-295, CNS Cancer, SF-295): 0.36 µM | GI50 ([2]; SF-539, CNS Cancer, SF-539): 1.04 µM | GI50 ([2]; SK-MEL-2, Melanoma, SK-MEL-2): 18.2 µM | GI50 ([2]; SK-MEL-5, Melanoma, SK-MEL-5): 0.48 µM | GI50 ([2]; SK-MEL-28, Melanoma, SK-MEL-28): 2.01 µM | GI50 ([2]; SK-OV-3, Ovarian Cancer, SK-OV-3): 1.21 µM | GI50 ([2]; SN12C, Renal Cancer, SN12C): 0.25 µM | GI50 ([2]; SNB-19, CNS Cancer, SNB-19): 0.33 µM | GI50 ([2]; SNB-75, CNS Cancer, SNB-75): 1.39 µM | GI50 ([2]; SW-620, Colon Cancer, SW-620): 0.2 µM | GI50 ([2]; T47D, Breast Cancer, T-47D): 0.63 µM | GI50 ([2]; TK-10, Renal Cancer, TK-10): 2.75 µM | GI50 ([2]; U-251, CNS Cancer, U251): 0.18 µM | GI50 ([2]; UACC-62, Melanoma, UACC-62): 0.72 µM | GI50 ([2]; UACC-257, Melanoma, UACC-257): 12.3 µM | mean GI50 across NCI-60 panel (MGM) ([2]; average of GI50 values across the entire panel of NCI-60 cancer cell lines): 600 nM | Top1 Inhibiton [3]: 0 (no inhibition, 0, no MYC expression inhibition up to 4.0 μM)
